Row | SMILES | melting point [°C]
1 | Cc1nc2cc(-c3nn(C(C)c4oc5ccccc5c(=O)c4-c4cccc(F)c4)c4ncnc(N)c34)ccc2[nH]1 (stereo not given) | 154 to 156
2 | Cc1c(NC(=O)c2ccc(-c3ccc(Cl)s3)cc2)ccc2cc(CN3CCCCC3)cnc12 | 212 to 213
3 | Oc1c(Cl)cc(Cl)cc1Cc1cc(F)cc(Cc2cc(Cl)cc(Cl)c2O)c1O | 168
4 | C=CCn1c(NC)nn(C(=O)Nc2ccccc2)c1=S | 132 to 133
5 | CC(=O)OC(C)OC(=O)N1c2ccccc2Sc2cc(O)c3ccccc3c21 (stereo not given) | 102 to 112
6 | COC(=O)CCCCCOc1ccc(NC(=O)COCc2ccccc2)cc1 | 46 to 49
7 | Cc1cc(C#N)cc(C(N)=O)c1NC(=O)c1cc(Br)nn1-c1ncccc1Cl | > 255
8 | CS(=O)(=O)N1CCN(c2ccc(O)cc2)CC1 | 205
9 | CCOC(=O)C(CCc1ccccc1)CC1(C(=O)O)CCCC1 (stereo not given) | 68 to 69
10 | Nc1ncnc2c1ncn2Cc1nc2c(Cl)cccc2c(=O)n1-c1ccccc1Cl | 273 to 274
11 | OC1C(COC2CC2)OC(n2cnc3c(NC4CCCC4)ncnc32)C1O (stereo not given) | 126 to 128
12 | COC1=c2ccccc2=c2ccc(Cl)cc2=C(c2ccccc2F)N1 | 136 to 138
13 | COC(=O)c1cccc(-c2ncc(OCCN3CCOCC3)cn2)c1 | 89 to 91
14 | COC(=O)[C@H](O)[C@@H](N)c1ccc(F)cc1 | 105
15 | COCOc1cc2c(cc1-c1cc(-c3ccc(C(=O)O)cc3)ccc1-c1ccccc1)C(C)(C)CCC2(C)C | 90 to 94
16 | COc1ccc(-n2[nH]c(Cc3c(C)n(C(=O)c4ccc(Cl)cc4)c4ccc(OC)cc34)cc2=O)cc1 | 101 to 103
17 | Cc1cc(-n2ccnc2)c2cccc(OCc3c(Cl)ccc(S(=O)(=O)N4CCC[C@H]4C(=O)NCC4CC4)c3Cl)c2n1 | 100
18 | COC(=O)c1c(Cc2ccc(C(=O)O)cc2)c(=O)c2ccc(Cl)cc2n1-c1ccccc1 | 258 to 261
19 | c1ccc(-c2csc(-c3cnn4cccnc34)c2)cc1 | 72 to 72.5
20 | CC(=NN(C1=NNC(=O)CC1)c1ccccc1)c1ccccc1 | 176 to 178
21 | CC1=C(C2C=CN(C(=O)OCC(Cl)(Cl)Cl)C=C2)SC(C)C(=O)N1 (stereo not given) | 140 to 142
22 | CC(C)(C)OC(=O)N1CCC(c2nc3cc(-c4ccc(C(N)=O)c(F)c4)ccc3o2)CC1 | 202 to 206
23 | O=C1C=C(Br)C(=O)c2ccccc21 | 130 to 132
24 | COc1ccc(C(=O)Nc2cccnc2)c2c1oc1ccc(NC(C)=O)cc12 | > 250
25 | CC(C(=O)O)c1ccccc1OS(C)(=O)=O (stereo not given) | 94 to 96
26 | CSC(=O)Cn1c(=O)sc2ccccc21 | 146 to 147
27 | CCCCc1nc2c(N)nc(C)c(C)c2n1CC(C)(C)NC(=O)NC1CCCCC1 | 128 to 130
28 | Cc1c2c(nc3ccccc13)CCN(C(=O)Oc1ccccc1)CC2 | 150

Row | SMILES | melting point [°C]
29 | Clc1cccc(CNc2ncc(Cc3ccncc3)c3ccccc23)c1 | 141 to 142
30 | COc1ccc2c(OC)c(C(C)C)cc(OC)c2c1 | 80 to 81.5
31 | C=C[C@@]12CCC[C@@H](C#N)[C@@H]1C(=O)CC2 | 41 to 42
32 | Cn1ccc(-c2cccc(C=O)n2)n1 | 98 to 100
33 | Nc1cccc(-c2ccc(CCN3CCN(c4nnnn4-c4ccccc4)CC3)cc2)n1 | 212 to 214
34 | CN(C/C=C/C#CC(C)(C)C)Cc1cccc(N(C)Cc2ccccc2)c1 | 62 to 63
35 | CCOC(=O)C=CC1C(C(=O)O)C1(C)C (stereo not given) | 96
36 | COc1ccc(-c2cc3ccccc3[nH]2)cc1NC(=S)N[C@H](C)c1ccccc1 | 179 to 181
37 | CCn1c2ccc(C(=O)CCCCCl)cc2c2cc(C(=O)CCCCCl)ccc21 | 94 to 95
38 | Clc1cc(Cl)c2nc3c4ccccc4c4ccccc4c3nc2c1 | 221 to 222
39 | COC(=O)C1=C(C)NC(C)=C(C(=O)OCCCCCCCCBr)C1c1cccc([N+](=O)[O-])c1 (stereo not given) | 115
40 | CCCCCCC/C=C/C(=O)NC1CCCCC1 | 94 to 96
41 | Cn1cc(-c2ccc(C(=O)N3Cc4cccn4Cc4ccccc43)cn2)cn1 | 173 to 175
42 | Cc1nnc2cc(-c3ccncc3)ccn12 | 223 to 226
43 | CN1C(=O)CN=C(c2ccccc2F)c2cc(NC(=O)N3CCSC3)ccc21 | 185
44 | O=C(O)c1ccc(CNS(=O)(=O)c2ccc(Br)cc2)cc1 | 268 to 271
45 | COc1ccc(OC2COc3ccc(OCc4cc(OC)ccn4)cc3C2O)cc1 (stereo not given) | 80 to 82
46 | COC(=O)C(C(=O)OC)C(C#Cc1ccccc1)c1ccc(OC)c(OC2CCCC2)c1 (racemic) | 66 to 67
47 | N#Cc1ccc(O)c(C2(C(=O)O)CCCC2)c1 | 153 to 154
48 | CS(=O)(=O)c1ccc(C(=O)O)c(Cl)c1CC#N | 169 to 172
49 | COc1ccc(C2CCCN2S(=O)(=O)c2ccc(Cl)cc2)cc1 (racemic) | 133
50 | COc1ccc2c(c1)CCC1C3=CC(C)=C(OC(C)=O)C3(C)CCC21 (stereo not given) | 129 to 130
51 | CN(C)c1ccc(/C=C/c2ccc(F)cc2F)cc1 | 139 to 140
52 | CCCC=C(NC(=O)c1ccccc1)C(=O)OCC | 68 to 70
53 | N#Cc1ccc(NC(=O)NC(=O)c2ccccc2Cl)c(Cl)c1Cl | 278 to 282
54 | CC(C)(C)c1ccc(S(=O)(=O)N2c3ccccc3C[C@H]2C(=O)NCc2ccc(Cl)cc2)cc1 | 69
55 | O=C(Nc1ccc(F)cc1)c1ccc([N+](=O)[O-])cc1 | 143 to 146

Continued, values first:

Row | melting point [°C] | SMILES
56 | 105 to 106 | CCCCCS(=O)(=O)NC(=O)/C=C/c1ccc(OCCOC2CC2)cc1Oc1ncc(C(F)(F)F)cc1Cl
57 | 96 to 105 | CCOC(=O)C1CCN(Cc2c[nH]c3cccc(F)c23)CC1
58 | 112 to 114 | CC(=O)c1ccc(Nc2c(F)c(F)cc(F)c2F)c(CC(=O)N(C)C)c1
59 | 135 to 137 | CC(C)(C)OC(=O)NC[C@H]1CN(c2ccc3c(c2)CN(C(=O)OCc2ccccc2)CC3)C(=O)O1
60 | 210 to 211 | CO/C=C1/C(=O)NC(=O)c2ccc(Br)cc21
61 | 121 | COc1cc(C)cc(OC)c1C(=O)c1ccccc1N(C)C(=O)CBr
62 | 83 | Cc1ccccc1OCc1ccccc1[N+](=O)[O-]
63 | 100 to 103 | O=C(Nc1ccc(F)cc1)c1ccccn1
64 | 49 to 54 | C=CCNc1nc(-c2ccccc2)ncc1C(=O)OCC
65 | 70 | C=Cc1cccc(C(OS(=O)(=O)c2ccc(Cl)cc2)(C(F)(F)F)C(F)(F)F)c1
66 | 61 to 62 | Cc1cc(Br)c2nc(OCC(F)(F)F)ccc2c1
67 | 195 to 200 | CCCCCc1nc2c(Nc3ccc(Cl)c(Cl)c3)nc3ccccc3c2[nH]1
68 | 180 to 181 | CCCc1c(OCCCS(=O)(=O)c2ccc(CC(=O)O)c(Cl)c2Cl)ccc(C(C)=O)c1O
69 | > 290 | CCOC(=O)c1cnc2cc3c(cc2c1O)OCO3
70 | 217 to 218 | C[C@@H](n1cnc2c(cnn2-c2ccc(F)cc2)c1=O)[C@](O)(Cn1cncn1)c1ccc(F)cc1F
71 | 38 to 40 | Cc1nnc(-c2ccccc2OCC2CO2)o1 (stereo not given)
72 | 279 to 281 | CC1(C)Oc2ccc(S(=O)(=O)C(F)(F)F)cc2[C@@H](N2Cc3ccccc3C2=O)[C@@H]1O (relative stereo)
73 | 318 | COc1ccc(-c2nc(O)cc(O)n2)cc1
74 | 142 to 144 | O=C(CC(CCCc1ccccc1)C(=O)O)c1ccc2c3c(oc2c1)CCCC3 (stereo not given)
75 | 109 to 110 | CCC1=C(Cl)C(=O)c2ccccc2C1=O
76 | 113 to 114 | Cc1cc(CN2CCN(C(C)C)CC2)cc2c1Cc1c(-c3ccsc3)n[nH]c1-2
77 | 221 to 223 | COc1ncccc1Nc1c(NC(NC(=O)c2cc(F)cc(F)c2)C(C)(C)C)c(=O)c1=O (stereo not given)
78 | 260 to 261 | NS(=O)(=O)c1ccc(-n2nc(C(F)(F)F)cc2-c2nc3ccc(F)cc3s2)cc1

Row | melting point [°C] | SMILES
79 | 174 to 175 | Cc1cc(CCc2cc(O)c(=O)[nH]n2)ccc1C(F)(F)F
80 | 94 to 98 | CCC1CCCCCc2c1oc(=O)c(C(c1ccccc1)C1CC1)c2O (stereo not given)
81 | 230 | CCOC(=O)c1ncc2[nH]c3ccc(N4CCCS4(=O)=O)cc3c2c1C
82 | 79 to 82 | Cc1ccc(-c2ccn(C(C)C(=O)N(C)C)n2)cc1 (stereo not given)
83 | 238 to 239 | CC(C)(C)OC(=O)Nc1ccc(CN2C(=O)C3(COc4cc5c(cc43)OCCO5)c3ccccc32)cn1 (stereo not given)
84 | 194 to 195 | O=C(Cc1ccc(OCc2ccccc2)cc1)Nc1nnc(-c2cccc(Oc3cccc(C(F)(F)F)c3)c2)s1
85 | 116 to 120 | CC(C)Oc1cc(CCCOc2cc(CCC(=O)O)n(C)n2)cc(COc2ccc(Cl)cc2Cl)c1
86 | 90 to 92 | CC(=O)c1nc2cccc(OC(F)(F)F)c2cc1OCc1ccccc1
87 | 156 to 157 | Cc1nc(N2CCN(Cc3ccc(C(=O)N4CCCCC4)cc3)C2=O)sc1-c1ccn[nH]1
88 | 231 to 233 | O=C(O)c1ccc(COCc2csc3nc(C(=O)NCc4ccc(F)c(Br)c4)[nH]c(=O)c23)cc1
89 | 166 to 169 | CCNn1cc(C(=O)O)c(=O)c2ccc(C)nc21
90 | 160 to 161 | CCCCOc1c(CNC(=O)OC(C)(C)C)n(CC(C)C)c(=O)c2ccc(-c3nc(C#N)cs3)cc12
91 | 157 | O=c1cc(C(F)(F)F)nc[nH]1
92 | 248 to 250 | O=C(CCNc1c(C(=O)O)[nH]c2cc(Cl)ccc12)c1ccc(F)cc1
93 | 187 to 189 | O=C1NC(=O)C(Cc2ccccc2)N1 (stereo not given)
94 | 60 to 63 | O=C(c1ccc(F)cc1)c1ccnc(Cl)c1
95 | 142 to 145 | O=C(O)c1cc(F)c(C(F)(F)F)cc1[N+](=O)[O-]
96 | 184 to 185 | CC(C)OC(=O)NNc1n[nH]c2cc(Cl)ccc12
97 | 242 | COC(=O)c1cccc(Nc2nc(Cl)nc3[nH]cnc23)c1
98 | 231 to 234 | CCN(CC)CCNc1ccc2c3c(nn2CCO)-c2c(O)ccc(O)c2C(=O)c13
99 | 132 to 134 | O=[N+]([O-])c1cc(C(F)F)cc2nc(C(F)(F)F)[nH]c12
100 | 305 to 307 | Nc1c(-c2cc(Cl)ccc2O)c2cc(Cl)c(Cl)cc2[nH]c1=O
